In patent US5696083A, “Personal care composition containing pyrithione and polymyxin” (Olin Corporation, priority 1994, dated 1997):

Experiments:
Type in all cases: cell-based
[1] = test system: Proteus mirabilis; assay: Checkerboard MIC Test in Tryptic Soy Broth; conditions: 28° C., 3 days; for Minimum Inhibitory Concentration, Compound Used Alone: checkerboard, PE methanesulfonate, Na+, 14,310 units/mg
Procedure: (§1) Determinations of minimum inhibitory concentrations (MIC's) of the two compounds (pyrithione salts and/or polymyxin sulfate) in a nutrient broth (alone and in mixtures) were conducted to evaluate interactions. Stock solutions of pyrithione salts and/or polymyxin salts were diluted in Tryptic Soy Broth (Difco), and the dilutions were inoculated with an equal volume of bacterial culture (10^6 /ml) or fungal spore suspension (10^5 /ml) in Tryptic Soy Broth and incubated at 28° C. for 3-7 days.
(§2) The interactions of the antimicrobials were determined according to accepted procedures (M. C. Berenbaum [Tables 1 and 2] and P. F. Dougherty "Microdilution Transfer Plate Technique for Determining In Vitro Synergy of Antimicrobial Agents", ANTIMICROBIAL AGENTS AND CHEMOTHERAPY, Vol. 11, No. 2, p. 225-228 (Feb. 1977, American Society for Microbiology) [Tables 3 and 4]). The concentration of each agent in the combination that inhibits the organisms is expressed as a fraction of the concentration that causes the same effect when the same agent is tested alone (i.e., its fractional inhibitory concentration, FIC). If the sum of the FIC's is 1, the combination is additive in its antimicrobial effect; if the sum is <1, the combination is synergistic; and if the sum is >1, the combination is antagonistic.
(§3) ^b Each dilution contained 10^6 bacteria/ml of 10^5 fungi/ml.

[2] = test system: Pseudomonas fluorescens; assay: Checkerboard MIC Test in Tryptic Soy Broth; conditions: 28° C., 3 days; for Minimum Inhibitory Concentration, Compound Used Alone: checkerboard, PE methanesulfonate, Na+, 14,310 units/mg
Procedure: as §1, §2, §3

[3] = test system: Pseudomonas aeruginosa; assay: Checkerboard MIC Test in Tryptic Soy Broth; conditions: 28° C., 3 days; for Minimum Inhibitory Concentration, Compound Used Alone: checkerboard, PE methanesulfonate, Na+, 14,310 units/mg
Procedure: as §1, §2, §3

[4] = test system: Candida albicans; assay: Checkerboard MIC Test in Tryptic Soy Broth; conditions: 28° C., 5 days; for Minimum Inhibitory Concentration, Compound Used Alone: checkerboard, PE methanesulfonate, Na+, 14,310 units/mg
Procedure: as §1, §2, §3

[5] = test system: Trichophyton mentagrophytes; assay: Checkerboard MIC Test in Tryptic Soy Broth; conditions: 28° C., 5 days; for Minimum Inhibitory Concentration, Compound Used Alone: checkerboard, PE methanesulfonate, Na+, 14,310 units/mg
Procedure: as §1, §2, §3

[6] = test system: Gliocladium virens; assay: MIC in Tryptic Soy Broth, compounds alone and in mixtures; conditions: Table 1, 28° C., 6-7 days
Procedure: as §1, §2
(§4) ^a Compounds were serially diluted in Tryptic soy Broth (DIFCO),
as §3
(§5) ^a Stock solutions of ZP in dimethylsulfoxide and PB in sterile water

[7] = test system: Proteus mirabilis; assay: as above; conditions: Table 1, 28° C., 3 days
Procedure: as §1, §2, §4, §3, §5

[8] = test system: Pseudomonas fluorescens; assay: as above; conditions: Table 1, 28° C., 3 days
Procedure: as §1, §2, §4, §3, §5

[9] = test system: Citrobacter freundii; assay: as above; conditions: Table 1, 28° C., 3 days
Procedure: as §1, §2, §4, §3, §5

[10] = test system: Alcaligens faecalis; assay: as above; conditions: Table 1, 28° C., 3 days
Procedure: as §1, §2, §4, §3, §5

[11] = test system: Pseudomonas aeruginosa; assay: as above; conditions: Table 1, 28° C., 3 days
Procedure: as §1, §2, §4, §3, §5

[12] = test system: Cephalosporium sp.; assay: as above; conditions: Table 1, 28° C., 6-7 days
Procedure: as §1, §2, §4, §3, §5

[13] = test system: Candida albicans; assay: as above; conditions: Table 1, 28° C., 6-7 days
Procedure: as §1, §2, §4, §3, §5

[14] = test system: Aspergillus niger; assay: as above; conditions: Table 1, 28° C., 6-7 days
Procedure: as §1, §2, §4, §3, §5

[15] = test system: Pseudomonas rubescens; assay: as above; conditions: Table 1, 28° C., 3 days
Procedure: as §1, §2, §4, §3, §5

[16] = test system: Penicillin pinophilium; assay: as above; conditions: Table 1, 28° C., 6-7 days
Procedure: as §1, §2, §4, §3, §5

[17] = test system: Fusarium solani; assay: as above; conditions: Table 1, 28° C., 6-7 days
Procedure: as §1, §2, §4, §3, §5

[18] = test system: Chaetomium globosium; assay: as above; conditions: Table 1, 28° C., 6-7 days
Procedure: as §1, §2, §4, §3, §5

[19] = test system: Trichophyton mentagrophytes; assay: as above; conditions: Table 1, 28° C., 6-7 days
Procedure: as §1, §2, §4, §3, §5

[20] = test system: Pseudomonas Stutzeri; assay: as above; conditions: Table 1, 28° C., 3 days
Procedure: as §1, §2, §4, §3, §5

[21] = test system: Pseudomonas oleovorans; assay: as above; conditions: Table 1, 28° C., 3 days
Procedure: as §1, §2, §4, §3, §5

[22] = test system: Aureobasidium pullulans; assay: as above; conditions: Table 1, 28° C., 6-7 days
Procedure: as §1, §2, §4, §3, §5

[23] = Table 3, concentration of the component in SP+PE mixtures, SP/PE range 1/16-4
[24] = Table 3, concentration of the component in SP+PE mixtures, SP/PE range ≤1/128-8
[25] = Table 3, concentration of the component in SP+PE mixtures, SP/PE range 4-16
[26] = Table 3, concentration of the component in SP+PE mixtures, SP/PE range 1/2048-1/4
[27] = Table 3, concentration of the component in SP+PE mixtures, SP/PE range 1/2-8
[28] = alone, Tryptic Soy Broth, PB sulfate 7610 units/mg
[29] = concentration of the component in SP+PB mixture, SP/PB ratio 1
[30] = concentration of the component in SP+PB mixture, SP/PB ratio 1/20-1/10
[31] = concentration of the component in SP+PB mixture, SP/PB ratio 650

[Na+].[O-][n+]1ccccc1[S-] [SP, sodium pyrithione]
Minimum Inhibitory Concentration, Compound Used Alone ([1]; Table 3): 512 ppm
Minimum Inhibitory Concentration, Mixture Range [1, 23]: 256 ppm
Minimum Inhibitory Concentration, Compound Used Alone ([2]; Table 3): 128 ppm
Minimum Inhibitory Concentration, Mixture Range [2, 24]: ≤1-32 ppm
Minimum Inhibitory Concentration, Compound Used Alone ([3]; Table 3): 128 ppm
Minimum Inhibitory Concentration, Mixture Range [3, 25]: 32-64 ppm
Minimum Inhibitory Concentration, Compound Used Alone ([4]; Table 3): 32 ppm
Minimum Inhibitory Concentration, Mixture Range [4, 26]: 1-16 ppm
Minimum Inhibitory Concentration, Compound Used Alone ([5]; Table 3): 32 ppm
Minimum Inhibitory Concentration, Mixture Range [5, 27]: 16-32 ppm
Minimum Inhibitory Concentration, Compound Used Alone [6, 28]: 108.3 ppm
Minimum Inhibitory Concentration, Mixture ([6]; concentration of the component in SP+PB mixture, SP/PB ratio 1/10-1): 15.2 ppm
Minimum Inhibitory Concentration, Compound Used Alone [7, 28]: 325.1 ppm
Minimum Inhibitory Concentration, Mixture ([7]; concentration of the component in SP+PB mixture, SP/PB ratio 1/20-1): 61.0 ppm
Minimum Inhibitory Concentration, Compound Used Alone [8, 28]: 135.5 ppm
Minimum Inhibitory Concentration, Mixture ([8]; concentration of the component in SP+PB mixture, SP/PB ratio 3-10): 6.7 ppm
Minimum Inhibitory Concentration, Compound Used Alone [9, 28]: 12.7 ppm
Minimum Inhibitory Concentration, Mixture ([9]; concentration of the component in SP+PB mixture, SP/PB ratio 41-81): 6.7 ppm
Minimum Inhibitory Concentration, Compound Used Alone [10, 28]: 30.5 ppm
Minimum Inhibitory Concentration, Mixture ([10]; concentration of the component in SP+PB mixture, SP/PB ratio 5-41): 9.3 ppm
Minimum Inhibitory Concentration, Compound Used Alone [11, 28]: 162.6 ppm
Minimum Inhibitory Concentration, Mixture ([11]; concentration of the component in SP+PB mixture, SP/PB ratio 163-325): 81.3 ppm
Minimum Inhibitory Concentration, Compound Used Alone [12, 28]: 50.8 ppm
Minimum Inhibitory Concentration, Mixture [12, 29]: 15.2 ppm
Minimum Inhibitory Concentration, Compound Used Alone [13, 28]: 33.9 ppm
Minimum Inhibitory Concentration, Mixture [13, 30]: 6.7 ppm
Minimum Inhibitory Concentration, Compound Used Alone [14, 28]: 121.9 ppm
Minimum Inhibitory Concentration, Mixture ([14]; concentration of the component in SP+PB mixture, SP/PB ratio 1/10): 40.6 ppm
Minimum Inhibitory Concentration, Compound Used Alone [15, 28]: 23.7 ppm
Minimum Inhibitory Concentration, Mixture [15, 31]: 2.5 ppm
Minimum Inhibitory Concentration, Compound Used Alone [16, 28]: 20.3 ppm
Minimum Inhibitory Concentration, Mixture [16, 30]: 5.1 ppm
Minimum Inhibitory Concentration, Compound Used Alone [17, 28]: 243.8 ppm
Minimum Inhibitory Concentration, Mixture [17, 29]: 40.6 ppm
Minimum Inhibitory Concentration, Compound Used Alone [18, 28]: 12.7 ppm
Minimum Inhibitory Concentration, Mixture ([18]; concentration of the component in SP+PB mixture, SP/PB ratio 1/10-1/5): 3.8 ppm
Minimum Inhibitory Concentration, Compound Used Alone [19, 28]: 20.3 ppm
Minimum Inhibitory Concentration, Mixture ([19]; concentration of the component in SP+PB mixture, SP/PB ratio 1/10-1/3): 8.5 ppm
Minimum Inhibitory Concentration, Compound Used Alone [20, 28]: 81.3 ppm
Minimum Inhibitory Concentration, Mixture ([20]; concentration of the component in SP+PB mixture, SP/PB ratio 325-650): 40.6 ppm
Minimum Inhibitory Concentration, Compound Used Alone [21, 28]: 12.7 ppm
Minimum Inhibitory Concentration, Mixture [21, 31]: 3.2 ppm
Minimum Inhibitory Concentration, Compound Used Alone [22, 28]: 15.2 ppm
Minimum Inhibitory Concentration, Mixture [22, 30]: 5.1 ppm

Polymyxin E methanesulfonate [PE]
Minimum Inhibitory Concentration, Compound Used Alone ([1]; Table 3): > 16,400 ppm
Minimum Inhibitory Concentration, Mixture Range [1, 23]: 64-4096 ppm
Minimum Inhibitory Concentration, Compound Used Alone ([1]; Table 4): > 16,400 ppm
Minimum Inhibitory Concentration, Mixture Range ([1]; Table 4, concentration of the component in ZP+PE mixtures, ZP/PE range 1/1024): 4096 ppm
Minimum Inhibitory Concentration, Compound Used Alone ([2]; Table 3): 256 ppm
Minimum Inhibitory Concentration, Mixture Range [2, 24]: 4-128 ppm
Minimum Inhibitory Concentration, Compound Used Alone ([2]; Table 4): 256 ppm
Minimum Inhibitory Concentration, Mixture Range ([2]; Table 4, concentration of the component in ZP+PE mixtures, ZP/PE range ≤1/128-4): 4-128 ppm
Minimum Inhibitory Concentration, Compound Used Alone ([3]; Table 3): 16 ppm
Minimum Inhibitory Concentration, Mixture Range [3, 25]: 4-8 ppm
Minimum Inhibitory Concentration, Compound Used Alone ([3]; Table 4): 16 ppm
Minimum Inhibitory Concentration, Mixture Range ([3]; Table 4, concentration of the component in ZP+PE mixtures, ZP/PE range 2-8): 4-8 ppm
Minimum Inhibitory Concentration, Compound Used Alone ([4]; Table 3): > 8200 ppm
Minimum Inhibitory Concentration, Mixture Range [4, 26]: 64-2048 ppm
Minimum Inhibitory Concentration, Compound Used Alone ([4]; Table 4): > 8200 ppm
Minimum Inhibitory Concentration, Mixture Range ([4]; Table 4, concentration of the component in ZP+PE mixtures, ZP/PE range 1/2048-1/4): 32-2048 ppm
Minimum Inhibitory Concentration, Compound Used Alone ([5]; Table 3): 64 ppm
Minimum Inhibitory Concentration, Mixture Range [5, 27]: 4-32 ppm
Minimum Inhibitory Concentration, Compound Used Alone ([5]; Table 4): 64 ppm
Minimum Inhibitory Concentration, Mixture Range ([5]; Table 4, concentration of the component in ZP+PE mixtures, ZP/PE range 1/4-4): 4-32 ppm
